Results on 1 substance are retold here after US20230256050A1, “COMPOSITIONS, METHODS AND USES COMPRISING TENEURIN C-TERMINAL ASSOCIATED PEPTIDE -1 (TCAP-1) FOR ENHANCING MUSCLE PERFORMANCE” (priority 2016, published 2023).

Where no end group is shown, it is not given here.

For assay [1], the system named is tibialis anterior muscle. As to the kind of experiment: Oxidative capacity, NADH staining of muscle cryosections. To be noted: 10 nmoles/kg for 5 days. Type of assay: in vivo, Sprague-Dawley rats. As for the experimental part: Tibialis anterior muscles from the treated Sprague-Dawley rats were flash-frozen in liquid-nitrogen-cooled isopentane until cryosectioned at 10 µm thickness. Cryosections were then washed 2X with PBS, and then 0.2% NBT solution in PBS containing 0.1% NADH was added and allowed to incubate for 30 min at 37° C. Slides were washed 2X in PBS before mounted with cryoseal and imaged with Canon camera and Leica bright-field microscope at 100x magnification. Images were analyzed on Image J software and frequency distribution curves were constructed, where the darker the pixel represents higher NADH levels. Frequency curves were built based on average of five pictures per tissue, with a minimum of three tissues analysed for each group.

The next assay concerns neurons. To be noted: via increases of glucose transporter GLUT-3 to the plasma membrane (unpublished); cited from earlier work.
Assay [2] has as its system tibialis anterior muscle. The assay is described as follows: Electrical muscle stimulation, 6-minute fatigue protocol. Type of assay: in vivo, Sprague-Dawley rats. As to the method: Male adult Sprague-Dawley rats (-350 g) were used for the muscle function studies. Male adult Wistar rats (-250 g) were used for the functional positron emission tomography tests. Electrical muscle stimulation protocol was followed as described by Holwerda and Locke (2014) with minor modifications. Briefly, sixteen male adult Sprague-Dawley rats ([…]) were allowed to acclimate for 1 week on a 12:12 LD cycle. For 5 days daily, half of the rats (n=8) were treated with physiological saline control, and the other half (n=8) was treated with mouse-TCAP-1 (10 nmoles/kg) by subcutaneous injection in the interscapular region. Three days from the last treatment, animals were anesthetized with 5% isofluorane in 1 L/min O2, and subsequently positioned into testing apparatus. A 25 g needle was inserted through the soft tissue of the knee in order to ensure a stable position. The foot was placed on the lever attached to a servomotor and taped in position. Electrodes were placed below the skin but adjacent to the tibialis anterior (TA) muscle. The correct voltages for peak tetanic tension was established by increasing voltage by 1 volt increments. The test began with a single tetanus and single twitch protocol to establish baseline. The 6-min fatigue protocol (8 V, 200 Hz, 300 ms) was started. Immediately following the termination of the protocol, tetanic and twitch tensions were recorded at 0, 1, and 5 mins. Animals were immediately sacrificed after recovery measurements were recorded.

The test system of assay [3] is inositol triphosphate (IP3) levels, downstream signaling of ADGRL1, C2C12 skeletal cell line. The assay is described as follows: Mouse inositol triphosphate (IP3) ELISA in C2C12 cell lysates. To be noted: TCAP-1 100 nM, after 15 minutes, p<0.0001. Type of assay: cell-based. As for the experimental part: (§1) Immortalized murine skeletal cell line C2C12 cells were used for all in vitro studies. Cells were maintained at 60-70% confluency with Dulbecco’s Modified Eagle Medium (DMEM) supplemented with 20% fetal bovine serum (FBS) and penicillin/streptomycin antibiotic combination. To induce differentiation, the media was changed to DMEM supplemented with 10% horse serum and penicillin/streptomycin antibiotic combination, and cells were allowed to differentiate for 6 days (media replaced every 24 h). For treatment, cells were serum starved for 3 h and then treated with either vehicle (ddH20) or TCAP-1 (100 nM).
The protocols provided by commercial DAG and IP3 assays (MyBiosource, San Diego, California USA). Briefly, immortalized mouse C2C12 cells were prepared using the TCAP-treatment protocol described previously. Cells were added to a microELISA plate coated with purified mouse DAG or IP3 antibodies, respectively. Subsequently, 3,3′,5,5′-tetramethylbenzidine (TMB) solution was added to detect the HRP-conjugates as the colour changes. Finally, a sulphuric acid solution was added to terminate the reaction. The absorbance change was measured at a wavelength of 450 nm using a spectrophotometer (SpectraMax Plus).

In the next assay the test system is hind limb muscle. As to the kind of experiment: Functional positron emission tomography (fPET) of 18F-deoxyglucose uptake. Type of assay: in vivo, Wistar rats. To be noted: single subcutaneous 10 nmoles/kg, 3 days later, p<0.1, n=5. As for the experimental part: Male adult Sprague-Dawley rats (-350 g) were used for the muscle function studies. Male adult Wistar rats (-250 g) were used for the functional positron emission tomography tests. Functional Positron emission tomography (fPET) was performed using a Siemens Inveon microPET small animal PET scanner, and [18F]-2-deoxyglucose (FDG) radiotracer (IBA Molecular) and protocol was followed as previously described (Hogg et al., manuscript in review). PET scans were acquired on all of the animals 3 days post-dosing. The animals were injected intravenously with approximately 1mCi of FDG. The FDG uptake occurred under anesthesia for 90 min. Body temperature was maintained with a thermostat-regulated recirculating water heated pad. Static emission data was acquired for 20 minutes. […] The total PET counts were calculated from all voxels within the segmented volumes of interest. (Percent injected dose (%ID)) was calculated by normalizing the total counts in each tissue of interest at each time point, to the whole body total counts calculated over 1 min from the whole body max uptake time point, for each animal, during the first 90 min post FDG administration.) These images were then compiled into 3D projections, thus allowing for accurate analyses of muscle tissue. Fluorescence of the mean pixel was calibrated to volume of muscle being analyzed (mean pixel fluorescence/mm3).

Assay [4] deals with C2C12 murine skeletal muscle cells. As to the kind of experiment: Radioactive glucose (3H-2-deoxyglucose) uptake in vitro. To be noted: 100 nM, at 30 and 45 minutes (p<0.0001, p<0.001). Type of assay: cell-based, mouse. As to the method:
as §1
Immortalized murine skeletal C2C12 cells were allowed to proliferate and differentiate and glucose uptake protocol was followed as previously described with minor modifications (Maher et al., 1991; Uemura & Greenlee, 2006). At day 6 post-plating, cells were washed 2x with Locke’s buffer (154 mM NaCl, 5.6 mM KCI, 2.3 mM CaCl2, 3.6 mM NaHCOs, 5 mM HEPES) without serum and glucose. The culture was incubated in the Locke’s buffer for 1 h at 37° C. followed by exposure to 100 nM insulin, 100 nM TCAP-1, 100 nM SC-TCAP-1, or saline. 3H-2-deoxyglucose (0.5 µCi/ml) was added to culture 5 min before termination of treatment exposure. […] Cell lysates were used for determination of radioactivity by a beta liquid scintillation counter (Beckman Coulter).

[5] abbreviates: 10 nmoles/kg s.c. for 5 days, baseline.

Turning to “TCAP-1: 41-mer peptide from the C-terminal of teneurin-1, synthesized amidated, suspended in 0.9% saline for subcutaneous injection (QQLLGTGRVQGYDGYFVLSVEQYLELSDSANNIHFMRQSEI-NH2)”, the “NADH staining (oxidative capacity), unstimulated control limb, vs vehicle” value in the assay on tibialis anterior muscle [1] (contralateral control limb, p<0.05) was “significant increased frequency of a stronger NADH-positive staining”. Moreover, the “TCAP-1-mediated increase in oxidative capacity (NADH), stimulated limb, vs vehicle” value in the assay on tibialis anterior muscle [1] (exercised (stimulated) limb, p=0.1) is listed as “maintained”. Moreover, in the assay with neurons, the “glucose uptake in neurons” value is recorded as “significantly increases glucose uptake”. In the assay on tibialis anterior muscle [2] (10 nmoles/kg s.c. for 5 days), the “fatigue response curve vs vehicle” value was “responded comparably” and the “tetanic force production throughout fatigue or recovery vs vehicle” value was “responded comparably”. Further, the “force generated in recovery after fatigue protocol” value in the assay with tibialis anterior muscle [2] (10 nmoles/kg s.c. for 5 days, after 6-minute fatigue protocol) is “increased”. For the same substance, in the assay on tibialis anterior muscle [2] (setting [5]), the “contraction relaxation rate at baseline vs vehicle” value is “increased” and the “contraction velocity at baseline vs vehicle” value was “significantly slower”. In the assay on tibialis anterior muscle [2] (10 nmoles/kg s.c. for 5 days, compared to vehicle, p<0.05), the “half relaxation time (1/2RT) over fatigue protocol” value is given as “sustained”. The “muscle mass vs vehicle” value in the assay on tibialis anterior muscle [2] (10 nmoles/kg s.c. for 5 days, extracted muscles) was “no difference”. Besides, in the assay on tibialis anterior muscle [2] (10 nmoles/kg s.c. for 5 days, tested 3 days after last injection, p<0.05), the “twitch peak force at pre-test (baseline) vs vehicle” value is given as “significantly higher”. Moreover, the “rate of the contractions (max dx/dt) over fatigue protocol” value in the assay with tibialis anterior muscle [2] (10 nmoles/kg s.c. for 5 days, vehicle group steadily declined, p<0.05) is “maintained throughout the protocol”. In addition, in the assay on tibialis anterior muscle [2] (data not shown), the “fiber size vs vehicle” value is reported as “no difference”. Moreover, the IP3 levels result in assay [3] is recorded as “significantly reduced”. For the same substance, the “18F-DG uptake in hind limb muscles (fPET fluorescence)” value in the assay with hind limb muscle was “significant increase”. Further, the “3H-DG uptake into C2C12 cells vs vehicle” value in assay [4] was “significantly increased”.
